≈ marks a conversion by molar mass, not a printed value.
Key:
[1] = tested on: Mycobacterium tuberculosis CRY-5; CRY-10
Procedure: (§1)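 Resazurin microtiter assay (REMA) MICs of anti-TB drugs against 19 EQA Mycobacterium tuberculosis strains (clinical or proficiency isolates plus H37Rv). Drugs were tested in doubling dilutions. Each value is the consensus of two measurements; where they disagreed the lower value was taken.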

[2] = tested on: Mycobacterium tuberculosis CRY-27
Procedure: as §1

[3] = tested on: Mycobacterium tuberculosis CRY-8; CRY-13
Procedure: as §1

[4] = tested on: Mycobacterium tuberculosis CRY-28
Procedure: as §1

[5] = tested on: Mycobacterium tuberculosis CRY-1; CRY-17
Procedure: as §1

[6] = tested on: Mycobacterium tuberculosis CRY-26
Procedure: as §1

[7] = tested on: Mycobacterium tuberculosis CRY-15; CRY-21
Procedure: as §1

[8] = tested on: Mycobacterium tuberculosis CRY-20
Procedure: as §1

[9] = tested on: Mycobacterium tuberculosis CRY-4; CRY-30
Procedure: as §1

[10] = tested on: Mycobacterium tuberculosis CRY-14
Procedure: as §1

[11] = tested on: Mycobacterium tuberculosis CRY-6; CRY-29
Procedure: as §1

[12] = tested on: Mycobacterium tuberculosis CRY-23
Procedure: as §1

[13] = tested on: Mycobacterium tuberculosis CRY-19
Procedure: as §1

[14] = tested on: Mycobacterium tuberculosis CRY-2; CRY-25
Procedure: as §1

[15] = tested on: Mycobacterium tuberculosis CRY-9; CRY-22
Procedure: as §1

[16] = tested on: Mycobacterium tuberculosis CRY-12; CRY-24
Procedure: as §1

[17] = tested on: Mycobacterium tuberculosis CRY-3; CRY-11
Procedure: as §1

[18] = tested on: Mycobacterium tuberculosis CRY-16
Procedure: as §1

[19] = tested on: Mycobacterium tuberculosis CRY-7; CRY-18
Procedure: as §1

Structure (SMILES): CC(=O)NC[C@H]1CN(c2ccc(N3CCOCC3)c(F)c2)C(=O)O1 [Linezolid]
- MIC (REMA) [1]: 0.25 µg/mL (≈ 0.741 µM)
- MIC (REMA) [2]: 0.25 µg/mL (≈ 0.741 µM)
- MIC (REMA) [3]: 0.25 µg/mL (≈ 0.741 µM)
- MIC (REMA) [4]: 0.125 µg/mL (≈ 0.371 µM)
- MIC (REMA) [5]: 0.25 µg/mL (≈ 0.741 µM)
- MIC (REMA) [6]: 0.25 µg/mL (≈ 0.741 µM)
- MIC (REMA) [7]: 0.25 µg/mL (≈ 0.741 µM)
- MIC (REMA) [8]: 0.125 µg/mL (≈ 0.371 µM)
- MIC (REMA) [9]: 0.5 µg/mL (≈ 1.48 µM)
- MIC (REMA) [10]: 0.03 µg/mL (≈ 0.0889 µM)
- MIC (REMA) [11]: 0.125 µg/mL (≈ 0.371 µM)
- MIC (REMA) [12]: 0.25 µg/mL (≈ 0.741 µM)
- MIC (REMA) [13]: 0.06 µg/mL (≈ 0.178 µM)
- MIC (REMA) [14]: 0.25 µg/mL (≈ 0.741 µM)
- MIC (REMA) [15]: 0.25 µg/mL (≈ 0.741 µM)
- MIC (REMA) [16]: 0.25 µg/mL (≈ 0.741 µM)
- MIC (REMA) [17]: 0.5 µg/mL (≈ 1.48 µM)
- MIC (REMA) [18]: 0.25 µg/mL (≈ 0.741 µM)
- MIC (REMA) [19]: 0.25 µg/mL (≈ 0.741 µM)

Source: the supplement of paper PMC6125532
